The values that follow are results of earlier work, collected in patent publication EP2508186A1, “Phenoxazinones or phenothiazones as inhibitors of amyloid formation” (Max-Delbrück-Centrum für Molekulare Medizin, priority 2011, dated 2012).

This series deals with T1, Aβ42 (Homo sapiens, UniProt P05067).
T1 construct: the amyloid-β 1-42 (Aβ42) peptide
The following applies: previous biochemical investigations; cited from earlier work.

T1 sequence (P05067 672-713 limits assumed): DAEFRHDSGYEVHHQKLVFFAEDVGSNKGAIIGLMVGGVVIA

`CN(C)c1ccc2nc3ccc(=[N+](C)C)cc-3sc2c1` [methylene blue]: the “effect on Aβ42 fibrillogenesis and A11-reactive oligomers” value was “promotes Aβ42 fibrillogenesis and thereby reduces the amount of A11-reactive, potentially toxic amyloid oligomers”.
